# Literature values, collected in patent US10029019B1, “Method for mitigating osteoporosis using metallic gold cluster molecules” (priority 2017, dated 2018).
# How the values were obtained:
# [1] = system: RANKL-induced NF-κβ activation; settings: RAW 264.7 monocytes during osteoclast differentiation
# BMMs = settings: up to 200 μM in BMMs in vitro
Structure (SMILES),formation of RAW264.7 precursor cells into osteoclasts (RAW264.7 cells),other results
O=C1c2c(O)cccc2C([C@@H]2O[C@H](CO)[C@@H](O)[C@H](O)[C@H]2O)c2cc(CO)cc(O)c21 (stereo partly shown) [Aloin],prevent osteoclast differentiation,
"O=C(/C=C/c1ccc(O)c(O)c1)OCCc1ccccc1 [Caffeic Acid Phenethyl Ester (CAPE), Caffeic Acid Phenethyl Ester]",,RANKL-induced NF-κβ activation [1]: inhibit
[HH] [Hydrogen molecules],inhibit,
[Cl][La]([Cl])[Cl] [Lanthianum Chloride],,reduction of gene expression that leads towards osteoclastic differentiation (BMMs): 50%
